From patent US6677460B1, “Aromatic carboxylic acid bicyclic sulfur compounds” (Idemitsu Kosan Company, Limited, priority 1993, dated 2004)

Assays:
Type in all cases: in vivo
Settings in all cases: 100 g/hectare, 20th day after treatment
slender amaranth = experiment: Upland soil treatment test (6)
Description: (§1) 90 Parts by weight of the above carrier and 10 parts by weight of each of Compounds obtained in the above Preparation Examples were uniformly pulverized and mixed to obtain herbicides. Further, for Herbicide Comparative Examples, comparative herbicides were prepared by uniformly pulverizing and mixing 90 parts by weight of the above carrier and 10 parts by weight of each of the following Compounds x, y, A, B and C.
(§2) (6) Biological Test (Upland Soil Treatment Test, Herbicide Examples 27˜42 and Comparative Example 10).
(§3) Seeds of weeds such as large crabgrass, barnyard grass, green foxtail, cocklebur , velvetleaf and slender amaranth and seeds of corn, wheat and barley were sown in 1/5,000-are Wagner pots filled with upland soil, and covered with upland soil. Then, a predetermined amount of the herbicide prepared in the above (1) was suspended in water and uniformly sprayed onto the soil surface. Thereafter, the plants were grown in the greenhouse, and on 20th day after the treatment, the herbicide was evaluated f or herbicidal efficacy.
(§4) The dosage of each herbicide is indicated as an amount of the active ingredient per hectare. Further, air-dried weight were measured and the herbicidal efficacy and the phytotoxicity to corn are shown on the basis of the ratings described below.

velvetleaf = experiment: Upland soil treatment test (6)
Description: as §1, §2, §3, §4

large crabgrass = experiment: Upland soil treatment test (6)
Description: as §1, §2, §3, §4

green foxtail = experiment: Upland soil treatment test (6)
Description: as §1, §2, §3, §4

barnyard grass = experiment: Upland soil treatment test (6)
Description: as §1, §2, §3, §4

cocklebur = experiment: Upland soil treatment test (6)
Description: as §1, §2, §3, §4

corn = experiment: Upland soil treatment test (6), phytotoxicity
Description: as §1, §2, §3, §4
Also: ranges in brackets are in %.

| SMILES | Herbicidal efficacy (F): slender amaranth (slender amaranth) | Herbicidal efficacy (E): velvetleaf (velvetleaf) | Herbicidal efficacy (A): large crabgrass (large crabgrass) | Herbicidal efficacy (C): green foxtail (green foxtail) | Herbicidal efficacy (B): barnyard grass (barnyard grass) | Herbicidal efficacy (D): cocklebur (cocklebur) | Phytotoxicity to corn (corn) |
| --- | --- | --- | --- | --- | --- | --- | --- |
| CCCS(=O)(=O)Oc1c(C(=O)c2cc(C)c3c(c2C)C(C)(C)CCS3(=O)=O)c(C)nn1C [Compound 30, 4,4,5,8-tetramethyl-6-(1,3-dimethyl-5-n-propanesulfonyloxypyrazol-4-yl)carbonylthiochroman-1,1-dioxide] | 5 (0) | 5 (0) | 5 (0) | 3 (21-40) | 4 (1-20) | 1 (61-80) | 0 (100) |
| CCCS(=O)(=O)Oc1c(C(=O)c2cc(C)c3c(c2C)C(C)CCS3(=O)=O)cnn1CC (stereo not drawn) [Compound 51, 4,5,8-trimethyl-6-(1-ethyl-5-n-propanesulfonyloxypyrazol-4-yl)carbonylthiochroman-1,1-dioxide] | 5 (0) | 5 (0) | 5 (0) | 5 (0) | 5 (0) | 5 (0) | 0 (100) |
| CCn1ncc(C(=O)c2cc(C)c3c(c2C)C(C)CCS3(=O)=O)c1O (stereo not drawn) [Compound 44, 4,5,8-trimethyl-6-(1-ethyl-5-hydroxypyrazol-4-yl)carbonylthiochroman-1,1-dioxide] | 5 (0) | 5 (0) | 5 (0) | 5 (0) | 5 (0) | 5 (0) | 0 (100) |
| CCn1ncc(C(=O)c2cc(C)c3c(c2C)C(C)CCS3(=O)=O)c1OS(=O)(=O)c1ccc(C)cc1 (stereo not drawn) [Compound 52, 4,5,8-trimethyl-6-(1-ethyl-5-p-toluenesulfonyloxypyrazol-4-yl)carbonylthiochroman-1,1-dioxide] | 5 (0) | 5 (0) | 5 (0) | 5 (0) | 5 (0) | 5 (0) | 0 (100) |
| CCn1ncc(C(=O)c2ccc3c(c2C)CCCS3(=O)=O)c1O [Compound 48, 5-Methyl-6-(1-ethyl-5-hydroxypyrazol-4-yl)carbonylthiochroman-1,1-dioxide] | 5 (0) | 5 (0) | 5 (0) | 1 (61-80) | 5 (0) | 1 (61-80) | 0 (100) |
| Cc1ccc(S(=O)(=O)Oc2c(C(=O)c3cc(C)c4c(c3C)C(C)(C)CCS4)c(C)nn2C)cc1 [Compound 31] | 5 (0) | 4 (1-20) | 5 (0) | 3 (21-40) | 4 (1-20) | 1 (61-80) | 0 (100) |
